Source: patent publication US20260176266A1, “PIPERIDINOPYRIMIDINE DERIVATIVE, PREPARATION METHOD THEREFOR AND USE THEREOF IN MEDICINE” (TUOJIE BIOTECH (SHANGHAI) CO., LTD., priority 2022, published 2026)
pIC50: −log10 of the molar value.

Tests used:
[1] = Human liver microsome metabolism study; type: in vitro ADME
Method: 222.5 μL of human liver microsomes (protein concentration: 1 mg/mL) and 25 μL of NADPH ([…]) were added to an incubation plate and pre-heated for 10 min. 2.5 μL of control compound and test compound (100 μM) were added.
[…] The reaction was stopped by adding 5 volumes of cold acetonitrile containing IS (100 nM alprazolam, 200 nM caffeine, and 100 nM tolbutamide). The reaction mixture was centrifuged, and 100 μL of the supernatant was collected and mixed with 100 μL of ultrapure H2O. Then the mixture was analyzed by LC-MS/MS.
The slope value k was determined by linear regression of the natural logarithm of a curve of the parent drug remaining percentage versus incubation time.
The in-vitro half-life (in-vitro T1/2) was determined by the slope value:
Using the following equation (the average of repeated measurements), the in-vitro T½ (min) was converted to the in-vitro intrinsic clearance rate (in-vitro CLint, in μL/min/mg protein): […]

[2] = tested on: HCC1806 breast cancer cells; test: Inhibitory activity against tumor cells, CellTiter-Glo: HCC1806; type: cell-based; conditions: Homo sapiens, 168 h, HCC1806, 7 days treatment
Method: (§1) MCF7 (ATCC #HTB-22) and T47D (ATCC #HTB-133) breast cancer cells and PANC-1 (ATCC #CRL-1469) pancreatic cancer cells were purchased from ATCC. MDA-MB-231 (Cobioer #CBP60382), HCC1806 (Cobioer #CBP60373), and MDA-MB-468 (Cobioer #CBP60387) breast cancer cells, HCT-116 (Cobioer #CBP60028) colorectal cancer cells, and OCI-AML-3 (Cobioer #CBP60817) and MV-4-11 (Cobioer #CBP60522) leukemia cells were purchased from Nanjing Cobioer Biosciences Co., Ltd.
(§2) OCI-AML-3 was cultured in RPMI 1640 medium with 20% FBS; HCC1806 and T47D were cultured in RPMI 1640 medium with 10% FBS; MCF7, MDA-MB-231, MDA-MB-468, and PANC-1 were cultured in DMEM medium with 10% FBS; MV-4-11 was cultured in IMDM medium with 20% FBS; HCT-116 was cultured in MC′5A medium with 10% FBS.
(§3) Palbociclib-resistant cells were constructed on MCF7 parent cells, designated MCF7 Palbo-R, and the culture conditions were consistent with those of the parent cells. All tumor cells were cultured in a cell incubator at 37° C. with 5% CO2. The cells were seeded at corresponding cell densities (600 cells/well for MDA-MB-231; 500 cells/well for MDA-MB-468, PANC-1, and HCT-116; 200 cells/well for MCF7 and HCC1806; 800 cells/well for MCF7 Palbo-R; 3000 cells/well for OCI-AML-3 and MV-4-11) in 384-well plates and cultured overnight in the incubator. On the second day, the cells were treated with compounds. The maximum compound concentration was 10 μM and was 3-fold diluted to obtain 9 concentrations, each tested in duplicate, and the final concentration of DMSO was 0.1%. The cells continued to be cultured in the incubator, with MDA-MB-231, PANC-1, MDA-MB-468, OCI-AML-3, and MV-4-11 being treated with drugs for 5 days and HCC1806, MCF7, MCF7 Palbo-R, and HCT116 being treated with drugs for 7 days. Cell viability was tested using the Celltiter Glo assay kit (Promega), and the testing method was consistent with the operational method provided by the kit. Readings were taken using an Envision multimode microplate reader. Data were processed using GraphPad Prism 8, and IC50 was calculated. […]

[3] = tested on: MDA-MB-468 breast cancer cells; test: Inhibitory activity against tumor cells, CellTiter-Glo: MDA-MB-468; type: cell-based; conditions: Homo sapiens, 120 h, MDA-MB-468, 5 days treatment
Method: as §1, §2, §3

OCI-AML-3 leukemia cells = test: Inhibitory activity against tumor cells, CellTiter-Glo: OCI-AML-3; type: cell-based; conditions: Homo sapiens, 120 h, OCI-AML-3, 5 days treatment
Method: as §1, §2, §3

SMILES	half-life at 1 μM ([1]; human liver microsomes, in-vitro half-life)	microsomal CLint at 1 μM ([1]; human liver microsomes, in-vitro intrinsic clearance)	Remaining amount % at 0.5 min ([1]; human liver microsomes, incubation 0.5 min)	Remaining amount % at 5 min ([1]; human liver microsomes, incubation 5 min)	Remaining amount % at 15 min ([1]; human liver microsomes, incubation 15 min)	Remaining amount % at 30 min ([1]; human liver microsomes, incubation 30 min)	Remaining amount % at 60 min ([1]; human liver microsomes, incubation 60 min)	metabolic stability in human liver microsomes compared with Janssen-01 ([1]; summary of Tables 7 and 8, statement in words)	pIC50 [2]	pIC50 [3]	pIC50 (OCI-AML-3 leukemia cells)
C[C@@H]1Cc2cnc(NCc3ccn(C)n3)nc2CN1C(=O)N[C@H](CN(C)C)c1ccccc1 [Example 2, (R)—N—((S)-2-(Dimethylamino)-1-phenylethyl)-6-methyl-2-(((1-methyl-TH-pyrazol-3-yl)methyl)amino)-5,8-dihydropyrido[3,4-d]pyrimidine-7(6H)-carboxamide]	> 3.08 h	< 7.5 µL/min/mg	100.00%	105.55%	96.07%	100.48%	81.83%	more stable metabolism	7.54	7.52	7.48
C[C@H](Nc1ncc2c(n1)CN(C(=O)N[C@H](CN(C)C)c1ccccc1)[C@H](C)C2)c1ccccn1 [Example 6, (R)—N—((S)-2-(Dimethylamino)-1-phenylethyl)-6-methyl-2-(((S)-1-(pyridin-2-yl)ethyl)amino)-5,8-dihydropyrido[3,4-d]pyrimidine-7(6H)-carboxamide]									7.63	7.67	7.48
